From PMC2567432 (PLoS ONE, 2008)

Test system: breast cancer MDA-MB-231 cells
Experiment: Cell proliferation WST-1 assay, MDA-MB-231
Assay type: cell-based, human
Conditions: MDA-MB-231, 24 h
Description: Figure 3 Growth inhibition of different tumor cell lines by polyphenols. […] Following 24-h incubation, cell proliferation was evaluated using the WST-1 assay.
Tumor cells were cultured in RPMI medium containing 10% fetal calf serum (RPMI-FCS) (PC-3, JIMT-1, MDA-MD 231) or in DMEM-FCS (astrocytoma 1321N1 cells) containing penicillin/streptomycin (100 U penicillin/ml; 100 µg streptomycin/ml) at 37°C/5% CO2. Cytosolic protein extracts of tumor cells were prepared using extraction buffer composed of 25 mM Tris, 2 mM EDTA, 10% Glycerol, 1% Triton ×100, 2 mM DTT, 1mM PMSF, pH. 7.0 containing 0.3% protease inhibitor cocktail. Protein content was determined according to Bradford. Specific activity of enzymes analyzed in cell extracts was expressed as U/mg protein.
Cell proliferation/vitality of tumor cells (96-well plates; 5000 cells/well) and primary human hepatocytes (24-well plates; 0.25×10^6 cells/well) was assayed using the WST-1 assay according to manufacturer's instructions. Trypan blue exclusion was performed by staining cells with 0.4% aqueous trypan blue solution according to the manufacturer's instructions.

COc1cc(C=CC(=O)CC(=O)C=Cc2ccc(O)c(OC)c2)ccc1O [curcumin, 1,7-bis(4-hydroxy-3-methoxyphenyl)-1,6-heptadiene-3,5-dione] was tested, and the “concentration giving strong anti-proliferative effects” value was “above 50 µM”.
